Results published in ChEMBL document CHEMBL1139896, “Synthesis, characterization, and estrogen receptor binding affinity of flavone-, indole-, and furan-estradiol conjugates” (Bioorg Med Chem Lett, 2007).

Target: T1, Estrogen receptor (Homo sapiens, UniProt P03372)
T1 sequence (P03372 whole entry): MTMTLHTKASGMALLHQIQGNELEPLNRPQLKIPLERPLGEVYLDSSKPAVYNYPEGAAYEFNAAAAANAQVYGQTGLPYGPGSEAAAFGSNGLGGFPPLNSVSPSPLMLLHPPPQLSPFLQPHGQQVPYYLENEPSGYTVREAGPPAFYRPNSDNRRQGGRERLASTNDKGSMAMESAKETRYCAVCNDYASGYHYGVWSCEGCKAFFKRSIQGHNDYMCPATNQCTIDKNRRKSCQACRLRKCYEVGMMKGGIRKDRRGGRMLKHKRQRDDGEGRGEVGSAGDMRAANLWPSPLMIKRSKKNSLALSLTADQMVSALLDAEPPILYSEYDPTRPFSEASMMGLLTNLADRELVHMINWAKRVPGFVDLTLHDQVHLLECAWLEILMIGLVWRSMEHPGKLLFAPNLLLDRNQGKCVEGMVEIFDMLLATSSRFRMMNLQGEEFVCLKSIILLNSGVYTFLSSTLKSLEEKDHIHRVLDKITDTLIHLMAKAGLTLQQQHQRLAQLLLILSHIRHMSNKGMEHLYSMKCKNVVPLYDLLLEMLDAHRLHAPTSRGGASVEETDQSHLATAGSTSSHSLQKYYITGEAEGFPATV
Description: Binding affinity to ERalpha

| Ki | SMILES |
| --- | --- |
| 332 nM | Cc1ccc(S(=O)(=O)Oc2ccc3c(C#C[C@]4(O)CC[C@H]5[C@@H]6CCc7cc(O)ccc7[C@H]6CC[C@@]54C)c(-c4ccc(OCc5ccccc5)cc4)oc3c2)cc1 |
| 75 nM | C[C@]12CC[C@@H]3c4ccc(O)cc4CC[C@H]3[C@@H]1CC[C@@]2(O)C#Cc1c(-c2ccccc2O)[nH]c2ccccc12 |
| 100 nM | C[C@]12CC[C@@H]3c4ccc(O)cc4CC[C@H]3[C@@H]1CC[C@@]2(O)C#Cc1cccc2c(=O)cc(-c3ccccc3)oc12 |
| 63100 nM | C[C@]12CC[C@@H]3c4ccc(O)cc4CC[C@H]3[C@@H]1CC[C@@]2(O)C#CCCCCC#Cc1c(-c2ccccc2)oc2ccccc2c1=O |
| 17900 nM | Cc1ccc(S(=O)(=O)Oc2ccc3c(C#CCCCCC#C[C@]4(O)CC[C@H]5[C@@H]6CCc7cc(O)ccc7[C@H]6CC[C@@]54C)c(-c4ccc(OCc5ccccc5)cc4)oc3c2)cc1 |

| SMILES | Ki |
| --- | --- |
| COc1ccccc1-c1[nH]c2ccccc2c1C#C[C@]1(O)CC[C@H]2[C@@H]3CCc4cc(O)ccc4[C@H]3CC[C@@]21C | 35 nM |
| C[C@]12CC[C@@H]3c4ccc(O)cc4CC[C@H]3[C@@H]1CC[C@@]2(O)C#CCCCCC#Cc1cccc2c(=O)cc(-c3ccccc3)oc12 | 382 nM |
| C[C@]12CC[C@@H]3c4ccc(O)cc4CC[C@H]3[C@@H]1CC[C@@]2(O)C#Cc1c(-c2ccccc2)oc2ccccc2c1=O | 37 nM |
